Data: US12122833B2, “Combination therapies of HDAC inhibitors and PD-1 inhibitors” (HUYABIO International, LLC, priority 2016, dated 2024)

What was measured:
HDAC 3 = HDAC 3 (Homo sapiens, UniProt O15379); conditions: reported by Ning et al.; cited from earlier work
HDAC 11 = biological target: T1, HDAC 11 (Homo sapiens, UniProt Q96DB2); conditions: cited from earlier work
T1 sequence (Q96DB2 1-347): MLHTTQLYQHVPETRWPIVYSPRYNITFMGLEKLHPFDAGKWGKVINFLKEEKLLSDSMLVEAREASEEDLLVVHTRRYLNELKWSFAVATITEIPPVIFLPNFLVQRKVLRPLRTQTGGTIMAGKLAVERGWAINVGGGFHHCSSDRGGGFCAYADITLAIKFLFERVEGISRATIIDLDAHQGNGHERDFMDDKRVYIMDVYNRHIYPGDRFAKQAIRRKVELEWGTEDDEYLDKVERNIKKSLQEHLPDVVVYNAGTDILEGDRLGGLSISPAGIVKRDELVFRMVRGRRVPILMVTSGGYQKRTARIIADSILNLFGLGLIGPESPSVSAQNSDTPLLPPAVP

[1] = tested on: MC38 murine colon carcinoma cells; experiment: Example 1: tumor growth delay, MC38 murine colon carcinoma in C57BL/6 mice; format: in vivo, mouse; conditions: for Median TTE: endpoint 1000 mm^3 or Day 47, n=10; for % TGD: vs vehicle
Procedure: In the present example, HBI-8000 was tested as monotherapy and in combination with anti-PD-1 at 5 mg/kg. The experiment included a vehicle-treated group, and a PD-1 inhibitor antibody monotherapy group, which served as the control groups for analysis of efficacy. Tumors were measured twice per week until the study was ended on Day 47. Each animal was euthanized when its tumor attained the endpoint tumor volume of 1000 mm^3 or on the final day of the study, whichever came first, and the time to endpoint (TTE) for each mouse was calculated. Treatment response was determined from an analysis of percent tumor growth delay (% TGD), defined as the percent increase in the median time to endpoint (TTE) for treated versus control mice; and by log rank significance of differences in survival among groups and regression responses.
Mice: Female C57BL/6 mice (Charles River Laboratories) were eight weeks old, with a body weight (BW) range of 15.4 to 22.0 grams on Day 1 of the study. The animals were fed ad libitum water (reverse osmosis, 1 ppm Cl), and NIH 31 Modified and Irradiated Lab Diet® consisting of 18.0% crude protein, 5.0% crude fat, and 5.0% crude fiber. The mice were housed on irradiated Enrich-o'Cobs™ Laboratory Animal Bedding in static microisolators on a 12-hour light cycle at 20-22° C. (68-72° F.) and 40-60% humidity.
Tumor Cells: MC38 murine colon carcinoma cells were maintained in Dulbecco's Modified Eagle Medium (DMEM) supplemented with 10% fetal bovine serum and 2 mM glutamine, 100 units/mL penicillin G sodium, […] streptomycin sulfate, and 25 μg/mL gentamicin. Cell cultures were maintained in tissue culture flasks in a humidified incubator at 37° C., in an atmosphere of 5% CO2 and 95% air.
Tumor Implantation: Cells were harvested during exponential growth, and resuspended in cold DMEM. Each mouse was inoculated subcutaneously in the right flank with 1×10^6 cells (0.1 mL of cell suspension). Tumors were calipered in two dimensions to monitor growth as their mean volume approached the desired 100-150 mm^3 range. Tumor burden was calculated using the formula:
[formula] where w=width and l=length, in mm, of the tumor. Tumor weight may be estimated with the assumption that 1 mg is equivalent to 1 mm^3 of tumor volume. Fourteen days after tumor implantation, which was designated as Day 1 of the study, animals with individual tumor volumes from 75 to 221 mm^3 were sorted into eleven groups (n=10/group) with group mean tumor volume of 130-133 mm^3. […]
Tumor Growth Delay: Tumors were measured using calipers twice per week, and each animal was euthanized when its tumor reached a volume of 1000 mm^3 or at the end of the study (D47), whichever came first. […] The time to endpoint (TTE) for analysis was calculated for each mouse by the following equation: […]

HDAC 10 = biological target: T2, HDAC 10 (Homo sapiens, UniProt Q969S8); conditions: reported by Ning et al.; cited from earlier work
T2 sequence (Q969S8 1-669): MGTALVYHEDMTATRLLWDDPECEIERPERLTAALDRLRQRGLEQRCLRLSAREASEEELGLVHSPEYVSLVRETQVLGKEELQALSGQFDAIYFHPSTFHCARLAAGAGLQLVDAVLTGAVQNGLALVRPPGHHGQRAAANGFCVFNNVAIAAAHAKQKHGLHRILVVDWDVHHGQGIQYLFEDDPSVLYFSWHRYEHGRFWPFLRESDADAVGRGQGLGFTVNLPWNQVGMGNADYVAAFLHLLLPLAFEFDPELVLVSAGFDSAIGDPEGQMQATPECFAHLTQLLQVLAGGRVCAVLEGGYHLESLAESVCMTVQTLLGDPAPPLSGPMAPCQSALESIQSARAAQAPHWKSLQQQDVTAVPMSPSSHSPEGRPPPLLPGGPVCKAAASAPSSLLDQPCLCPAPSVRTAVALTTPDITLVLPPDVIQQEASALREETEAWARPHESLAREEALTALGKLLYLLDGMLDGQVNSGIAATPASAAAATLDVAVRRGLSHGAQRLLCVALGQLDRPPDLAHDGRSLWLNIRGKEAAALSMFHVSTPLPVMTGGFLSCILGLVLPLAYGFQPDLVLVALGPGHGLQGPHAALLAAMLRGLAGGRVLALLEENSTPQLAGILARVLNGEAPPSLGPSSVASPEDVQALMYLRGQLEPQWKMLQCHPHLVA

[2] = HBI-8000 20 mg/kg p.o. qd×21, alone or plus anti-PD-1 5 mg/kg i.p. biwk×3
[3] = HBI-8000 50 mg/kg p.o. qd×21, alone or plus anti-PD-1 5 mg/kg i.p. biwk×3

Sequence of HDAC 3 (O15379 whole entry): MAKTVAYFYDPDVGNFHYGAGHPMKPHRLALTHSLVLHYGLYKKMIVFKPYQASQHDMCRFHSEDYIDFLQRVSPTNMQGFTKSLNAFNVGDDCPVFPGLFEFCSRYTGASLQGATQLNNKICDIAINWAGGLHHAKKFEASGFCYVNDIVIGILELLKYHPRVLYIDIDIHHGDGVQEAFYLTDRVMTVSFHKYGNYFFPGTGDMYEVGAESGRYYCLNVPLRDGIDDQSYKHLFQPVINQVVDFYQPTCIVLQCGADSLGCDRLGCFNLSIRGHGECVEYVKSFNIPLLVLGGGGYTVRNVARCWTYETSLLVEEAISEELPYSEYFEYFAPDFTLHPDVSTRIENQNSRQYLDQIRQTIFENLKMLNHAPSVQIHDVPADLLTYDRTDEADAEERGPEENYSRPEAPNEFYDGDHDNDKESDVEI
Sequence of HDAC 3 (Q9Y618 395-489 partner limits assumed): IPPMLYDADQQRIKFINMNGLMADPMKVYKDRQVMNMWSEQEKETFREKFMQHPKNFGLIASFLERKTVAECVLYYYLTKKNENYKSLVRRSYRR

Nc1cc(F)ccc1NC(=O)c1ccc(CNC(=O)/C=C/c2cccnc2)cc1 [HBI-8000, N-(2-amino-4-fluorophenyl)-4-[[[(2E)-1-oxo-3-(3-pyridinyl)-2-propen-1-yl]amino]methyl]benz amide]
activity at HDAC 3 compared with Entinostat (HDAC 3): more active than Entinostat
inhibition of HDAC 3 (HDAC 3): low nanomolar concentrations
activity at HDAC 11 (HDAC 11): has activity
activity at HDAC 11 compared with Entinostat (HDAC 11; reported by Ning et al.): more active than Entinostat
Median TTE [1, 2]: 18.9 days
% TGD [1, 2]: −8%
Median TTE [1, 3]: 22.8 days
% TGD [1, 3]: 11%
activity at HDAC 10 compared with Entinostat (HDAC 10): more active than Entinostat
inhibition of HDAC 10 (HDAC 10): low nanomolar concentrations
